What all share (assay type): cell-based
Test [1] addresses FAK2 (PTK2B) (Homo sapiens, UniProt Q14289). Nature of the test: MIB/MS kinome profiling, HS01/HS11 Schwann cells, […] (text: lysate treatment; legend: cells treated […] h).
The target in test [2] is T1, GAK (Cyclin G-associated kinase) (Homo sapiens, UniProt O14976).
T1 construct: NanoLuc fusion (Promega NV1421)
T1 sequence (O14976 1-1311): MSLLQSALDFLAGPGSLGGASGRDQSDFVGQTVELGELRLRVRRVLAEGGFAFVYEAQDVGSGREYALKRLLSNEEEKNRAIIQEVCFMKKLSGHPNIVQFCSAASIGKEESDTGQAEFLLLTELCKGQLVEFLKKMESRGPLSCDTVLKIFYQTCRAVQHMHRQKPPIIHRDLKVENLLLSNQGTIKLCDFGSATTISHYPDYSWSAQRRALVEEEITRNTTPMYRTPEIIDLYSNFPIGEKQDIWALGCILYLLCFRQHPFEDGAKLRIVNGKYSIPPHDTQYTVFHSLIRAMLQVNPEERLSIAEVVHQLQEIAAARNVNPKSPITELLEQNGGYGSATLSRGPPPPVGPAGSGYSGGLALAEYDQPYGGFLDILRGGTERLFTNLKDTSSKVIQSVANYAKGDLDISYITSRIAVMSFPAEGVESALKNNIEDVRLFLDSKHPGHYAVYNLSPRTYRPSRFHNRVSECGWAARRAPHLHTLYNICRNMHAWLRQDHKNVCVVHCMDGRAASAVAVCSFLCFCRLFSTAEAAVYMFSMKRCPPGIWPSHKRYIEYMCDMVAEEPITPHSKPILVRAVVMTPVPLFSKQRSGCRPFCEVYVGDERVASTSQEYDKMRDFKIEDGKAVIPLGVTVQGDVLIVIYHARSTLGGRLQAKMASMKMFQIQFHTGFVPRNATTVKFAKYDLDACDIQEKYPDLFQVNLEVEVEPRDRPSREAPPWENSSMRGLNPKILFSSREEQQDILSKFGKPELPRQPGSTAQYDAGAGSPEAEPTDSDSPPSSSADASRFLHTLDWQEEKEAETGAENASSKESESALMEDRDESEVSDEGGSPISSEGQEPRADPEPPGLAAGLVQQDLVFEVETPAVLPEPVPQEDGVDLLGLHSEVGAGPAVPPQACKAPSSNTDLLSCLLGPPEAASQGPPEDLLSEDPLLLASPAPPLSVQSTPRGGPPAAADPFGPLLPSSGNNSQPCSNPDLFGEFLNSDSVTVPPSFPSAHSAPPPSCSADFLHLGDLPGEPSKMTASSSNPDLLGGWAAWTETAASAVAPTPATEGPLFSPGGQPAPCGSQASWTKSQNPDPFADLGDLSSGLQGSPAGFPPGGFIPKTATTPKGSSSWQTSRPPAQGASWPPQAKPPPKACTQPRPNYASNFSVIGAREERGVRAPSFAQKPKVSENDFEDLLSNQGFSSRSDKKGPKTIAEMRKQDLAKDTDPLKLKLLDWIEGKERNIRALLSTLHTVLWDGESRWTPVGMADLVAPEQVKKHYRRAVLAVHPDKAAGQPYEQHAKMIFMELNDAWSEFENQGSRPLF
Description: NanoBRET TE intracellular kinase assay with K-10 tracer in HEK293T cells.

The target of test [3] is T2, FAK1 (PTK2, focal adhesion kinase 1) (Homo sapiens, UniProt Q05397).
T2 construct: NanoLuc fusion (Promega NV1921)
The description is as above.

Test [4] has as its target T3, FER (Fps/Fes-related kinase) (Homo sapiens, UniProt P16591).
T3 construct: NanoLuc fusion (Promega NV1331)
The description is as above.

In test [5] the target is T4, TNK2 (ACK1, Activated Cdc42-associated kinase) (Homo sapiens, UniProt Q07912).
T4 construct: NanoLuc fusion (Promega NV4451)
Described as above.

As usually defined, the IC50 is the concentration that inhibits the measured activity by half. Low values mean inhibition by little substance, high ones a need for much substance.

FAK2 (PTK2B), sequence (Q14289 whole entry): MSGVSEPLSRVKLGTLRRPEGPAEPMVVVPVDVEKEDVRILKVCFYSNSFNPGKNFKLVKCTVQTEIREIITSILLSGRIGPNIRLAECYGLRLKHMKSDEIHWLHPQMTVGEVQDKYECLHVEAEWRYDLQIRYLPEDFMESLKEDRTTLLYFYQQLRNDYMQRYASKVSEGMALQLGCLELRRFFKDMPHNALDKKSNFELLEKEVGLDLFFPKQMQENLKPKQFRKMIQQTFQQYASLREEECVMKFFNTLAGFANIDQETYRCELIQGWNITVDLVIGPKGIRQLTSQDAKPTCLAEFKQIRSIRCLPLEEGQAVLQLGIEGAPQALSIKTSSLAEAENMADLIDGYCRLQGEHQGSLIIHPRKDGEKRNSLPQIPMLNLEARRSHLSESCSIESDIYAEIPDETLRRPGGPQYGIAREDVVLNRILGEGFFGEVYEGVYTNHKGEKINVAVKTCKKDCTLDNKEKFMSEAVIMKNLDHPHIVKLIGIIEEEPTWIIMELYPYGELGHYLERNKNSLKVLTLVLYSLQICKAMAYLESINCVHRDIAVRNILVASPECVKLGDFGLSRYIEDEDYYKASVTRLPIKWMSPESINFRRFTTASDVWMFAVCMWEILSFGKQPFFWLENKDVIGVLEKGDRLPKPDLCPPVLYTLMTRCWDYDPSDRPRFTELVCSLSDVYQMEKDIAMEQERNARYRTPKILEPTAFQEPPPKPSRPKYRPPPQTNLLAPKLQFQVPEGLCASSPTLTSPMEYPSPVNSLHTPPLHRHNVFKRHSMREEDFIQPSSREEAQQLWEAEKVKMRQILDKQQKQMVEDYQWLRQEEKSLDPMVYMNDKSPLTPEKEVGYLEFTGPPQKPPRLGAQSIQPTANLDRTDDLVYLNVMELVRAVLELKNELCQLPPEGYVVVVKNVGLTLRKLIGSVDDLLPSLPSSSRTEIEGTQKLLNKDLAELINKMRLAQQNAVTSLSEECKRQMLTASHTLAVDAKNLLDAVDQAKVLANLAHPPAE
T4 sequence (Q07912 whole entry, the tested form may be a part): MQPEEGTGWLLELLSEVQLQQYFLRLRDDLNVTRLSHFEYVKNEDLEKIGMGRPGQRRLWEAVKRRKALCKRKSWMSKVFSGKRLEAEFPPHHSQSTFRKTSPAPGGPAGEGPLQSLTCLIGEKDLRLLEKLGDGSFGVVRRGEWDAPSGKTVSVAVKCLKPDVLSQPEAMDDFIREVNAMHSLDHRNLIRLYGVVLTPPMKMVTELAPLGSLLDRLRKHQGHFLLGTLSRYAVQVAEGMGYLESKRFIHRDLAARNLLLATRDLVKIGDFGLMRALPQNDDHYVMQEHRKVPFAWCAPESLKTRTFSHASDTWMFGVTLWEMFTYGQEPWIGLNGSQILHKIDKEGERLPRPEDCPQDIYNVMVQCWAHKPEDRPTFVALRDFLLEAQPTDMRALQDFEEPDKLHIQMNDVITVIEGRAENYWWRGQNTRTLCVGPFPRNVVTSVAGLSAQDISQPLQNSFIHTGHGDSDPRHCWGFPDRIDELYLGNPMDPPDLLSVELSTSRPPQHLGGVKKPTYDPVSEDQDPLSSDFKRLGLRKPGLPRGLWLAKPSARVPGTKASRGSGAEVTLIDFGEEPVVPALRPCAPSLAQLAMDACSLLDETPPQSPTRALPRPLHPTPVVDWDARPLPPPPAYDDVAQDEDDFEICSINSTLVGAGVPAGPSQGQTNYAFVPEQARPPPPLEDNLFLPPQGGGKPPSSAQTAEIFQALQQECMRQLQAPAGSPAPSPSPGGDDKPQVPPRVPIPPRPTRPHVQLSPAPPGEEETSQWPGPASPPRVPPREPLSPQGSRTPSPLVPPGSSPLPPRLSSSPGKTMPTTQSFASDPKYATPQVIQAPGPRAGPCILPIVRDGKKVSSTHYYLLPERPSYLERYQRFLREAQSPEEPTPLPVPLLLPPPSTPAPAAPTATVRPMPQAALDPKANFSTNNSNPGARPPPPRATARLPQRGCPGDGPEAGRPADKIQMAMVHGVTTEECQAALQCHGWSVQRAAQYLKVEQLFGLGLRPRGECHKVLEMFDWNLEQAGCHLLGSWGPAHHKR
T2 sequence (Q05397 2-1052): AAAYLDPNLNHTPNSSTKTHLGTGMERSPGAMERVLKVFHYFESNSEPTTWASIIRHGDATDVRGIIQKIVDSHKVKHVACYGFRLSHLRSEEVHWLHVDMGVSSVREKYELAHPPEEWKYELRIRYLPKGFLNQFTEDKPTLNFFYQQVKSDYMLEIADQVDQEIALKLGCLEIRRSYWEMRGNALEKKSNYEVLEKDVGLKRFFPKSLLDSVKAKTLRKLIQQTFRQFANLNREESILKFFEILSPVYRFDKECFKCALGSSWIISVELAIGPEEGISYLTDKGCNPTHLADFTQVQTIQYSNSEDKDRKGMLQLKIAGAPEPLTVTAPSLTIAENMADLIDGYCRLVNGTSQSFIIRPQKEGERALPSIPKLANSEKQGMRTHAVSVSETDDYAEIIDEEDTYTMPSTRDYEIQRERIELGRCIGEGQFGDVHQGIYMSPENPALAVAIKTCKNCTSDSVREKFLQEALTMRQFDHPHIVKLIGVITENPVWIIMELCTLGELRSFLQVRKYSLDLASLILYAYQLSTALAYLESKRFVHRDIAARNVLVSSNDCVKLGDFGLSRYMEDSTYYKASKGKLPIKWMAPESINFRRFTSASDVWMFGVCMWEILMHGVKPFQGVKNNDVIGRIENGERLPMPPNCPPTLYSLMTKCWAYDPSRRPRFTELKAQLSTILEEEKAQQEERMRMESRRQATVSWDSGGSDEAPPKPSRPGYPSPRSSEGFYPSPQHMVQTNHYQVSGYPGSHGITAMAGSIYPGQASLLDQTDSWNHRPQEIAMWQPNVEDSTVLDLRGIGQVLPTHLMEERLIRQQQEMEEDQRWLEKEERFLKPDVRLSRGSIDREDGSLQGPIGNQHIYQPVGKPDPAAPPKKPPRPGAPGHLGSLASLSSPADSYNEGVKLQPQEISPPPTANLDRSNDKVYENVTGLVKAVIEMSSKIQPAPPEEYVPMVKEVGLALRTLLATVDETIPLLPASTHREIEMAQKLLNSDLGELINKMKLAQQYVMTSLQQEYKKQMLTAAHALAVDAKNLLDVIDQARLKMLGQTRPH
T3 sequence (P16591 whole entry, the tested form may be a part): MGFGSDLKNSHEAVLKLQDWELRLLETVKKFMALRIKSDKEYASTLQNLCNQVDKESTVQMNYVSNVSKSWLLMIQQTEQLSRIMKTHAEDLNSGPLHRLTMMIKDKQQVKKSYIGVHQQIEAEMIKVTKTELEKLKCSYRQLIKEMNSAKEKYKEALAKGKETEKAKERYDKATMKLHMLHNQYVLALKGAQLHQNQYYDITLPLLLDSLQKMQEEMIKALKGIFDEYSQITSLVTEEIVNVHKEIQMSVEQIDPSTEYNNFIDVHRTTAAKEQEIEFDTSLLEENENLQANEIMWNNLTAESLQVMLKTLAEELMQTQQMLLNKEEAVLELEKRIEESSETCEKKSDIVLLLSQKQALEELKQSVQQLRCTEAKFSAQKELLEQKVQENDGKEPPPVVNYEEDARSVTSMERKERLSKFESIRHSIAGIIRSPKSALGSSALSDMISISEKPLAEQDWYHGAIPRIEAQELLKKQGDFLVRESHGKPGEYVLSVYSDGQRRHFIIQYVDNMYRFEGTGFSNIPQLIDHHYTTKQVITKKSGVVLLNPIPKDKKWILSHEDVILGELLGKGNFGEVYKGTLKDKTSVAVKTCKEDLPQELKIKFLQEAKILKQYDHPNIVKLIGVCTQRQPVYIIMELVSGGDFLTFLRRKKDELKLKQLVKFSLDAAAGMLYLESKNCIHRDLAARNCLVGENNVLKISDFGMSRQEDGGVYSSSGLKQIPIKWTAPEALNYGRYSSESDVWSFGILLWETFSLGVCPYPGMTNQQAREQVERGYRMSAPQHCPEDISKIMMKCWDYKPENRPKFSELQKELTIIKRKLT

`COc1cc(N2CCC(N3CCN(C)CC3)CC2)ccc1Nc1ncc(Cl)c(Nc2ccccc2P(C)(C)=O)n1` [brigatinib]: the “MIB/MS kinome profiling, HS01/HS11 Schwann cells, 1 uM (text: lysate treatment;)” value in test [1] is “kinases with the largest reduction in binding were FER, TNK2, FAK1 (PTK2) and FAK2 (PTK2B)”. Also, the IC50 was 155 nM in test [2], 573 nM in test [3], 304 nM in test [4] and 350 nM in test [5].

For the origin of these results see paper PMC8282008, “Brigatinib causes tumor shrinkage in both NF2-deficient meningioma and schwannoma through inhibition of multiple tyrosine kinases but not ALK” (PLoS ONE, 2021).
